Our source for the inhibition values is US20230072683A1, “PYRIDO-PYRIMIDIN DERIVATIVES AND PHARMACEUTICAL COMPOSITION, FOR USE IN PREVENTING OR TREATING PI3 KINASE RELATED DISEASES, COMPRISING SAME AS ACTIVE INGREDIENT” (BORYUNG PHARMACEUTICAL CO., LTD, priority 2019, published 2023).

The target in experiment [1] is PI3K-δ (PI3K(p1108/p857) (h)) (Homo sapiens, UniProt O00329). Briefly: Evaluation of inhibitory activity against PI3K-δ (HTRF kinase assay). It counts as biochemical. To be noted: compound concentration 0.01 μM; read-out: EXP_VALUE(% Inhibition) PI3K-δ 0.01 μM. In a few lines: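 HTRF read-out (665/620 nm ratio ×10000) used Eu-labelled anti-GST, GST-tagged GRP1 PH domain and streptavidin-allophycocyanin after EDTA/PIP3 stop.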
PI3K-δ (PI3K(p1108/p857) (h)), sequence (O00329 whole entry, the tested form may be a part): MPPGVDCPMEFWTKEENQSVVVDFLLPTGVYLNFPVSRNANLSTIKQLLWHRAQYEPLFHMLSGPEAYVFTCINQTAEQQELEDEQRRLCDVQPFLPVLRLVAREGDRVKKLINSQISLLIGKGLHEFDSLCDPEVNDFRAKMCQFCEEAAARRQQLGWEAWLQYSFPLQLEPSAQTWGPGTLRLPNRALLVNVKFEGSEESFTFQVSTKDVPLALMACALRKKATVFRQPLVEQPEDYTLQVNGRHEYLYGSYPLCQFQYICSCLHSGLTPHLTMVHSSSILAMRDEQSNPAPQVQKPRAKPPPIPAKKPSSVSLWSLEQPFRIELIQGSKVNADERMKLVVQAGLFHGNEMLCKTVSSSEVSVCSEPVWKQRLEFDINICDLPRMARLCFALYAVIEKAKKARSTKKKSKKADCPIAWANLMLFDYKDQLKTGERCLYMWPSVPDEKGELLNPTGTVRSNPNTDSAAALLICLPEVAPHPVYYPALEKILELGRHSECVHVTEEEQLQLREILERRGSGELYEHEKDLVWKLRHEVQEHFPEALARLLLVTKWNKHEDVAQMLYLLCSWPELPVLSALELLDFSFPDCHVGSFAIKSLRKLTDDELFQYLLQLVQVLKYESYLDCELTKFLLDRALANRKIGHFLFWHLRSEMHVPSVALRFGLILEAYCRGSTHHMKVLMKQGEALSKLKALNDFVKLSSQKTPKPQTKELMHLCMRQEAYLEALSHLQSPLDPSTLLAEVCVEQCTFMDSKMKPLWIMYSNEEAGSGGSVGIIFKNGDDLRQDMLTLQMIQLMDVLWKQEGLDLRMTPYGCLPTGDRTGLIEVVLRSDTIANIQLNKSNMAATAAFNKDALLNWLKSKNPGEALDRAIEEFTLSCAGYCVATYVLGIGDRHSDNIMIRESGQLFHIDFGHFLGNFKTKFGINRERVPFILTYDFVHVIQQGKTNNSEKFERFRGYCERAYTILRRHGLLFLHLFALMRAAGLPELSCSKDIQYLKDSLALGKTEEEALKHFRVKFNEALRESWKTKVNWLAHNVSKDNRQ
PI3K-δ (PI3K(p1108/p857) (h)), sequence (P27986 whole entry partner, the tested form may be a part): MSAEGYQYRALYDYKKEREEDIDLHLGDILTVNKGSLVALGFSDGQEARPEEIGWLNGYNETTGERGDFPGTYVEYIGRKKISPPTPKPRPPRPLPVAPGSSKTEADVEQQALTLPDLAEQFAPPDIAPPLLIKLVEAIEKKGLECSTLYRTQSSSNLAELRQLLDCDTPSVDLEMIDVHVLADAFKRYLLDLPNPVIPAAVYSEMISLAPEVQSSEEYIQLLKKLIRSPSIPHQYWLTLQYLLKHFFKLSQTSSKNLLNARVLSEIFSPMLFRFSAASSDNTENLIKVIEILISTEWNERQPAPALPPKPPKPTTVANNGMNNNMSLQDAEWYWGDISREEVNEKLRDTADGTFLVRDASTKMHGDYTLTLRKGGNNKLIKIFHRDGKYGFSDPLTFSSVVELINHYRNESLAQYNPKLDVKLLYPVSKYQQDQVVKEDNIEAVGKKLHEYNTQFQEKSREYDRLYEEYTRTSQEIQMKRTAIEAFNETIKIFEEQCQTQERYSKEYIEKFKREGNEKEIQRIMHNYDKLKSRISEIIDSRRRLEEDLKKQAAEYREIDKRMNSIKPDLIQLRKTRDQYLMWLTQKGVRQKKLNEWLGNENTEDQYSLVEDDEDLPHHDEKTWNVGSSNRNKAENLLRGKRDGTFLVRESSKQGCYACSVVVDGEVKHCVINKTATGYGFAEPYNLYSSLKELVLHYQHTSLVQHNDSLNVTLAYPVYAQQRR

The next experiment concerns the target DNA-PK(h) (Homo sapiens, UniProt P78527). Briefly: Evaluation of inhibitory activity against DNA-PK (HTRF kinase assay, GST-cMyc-p53 substrate). It counts as biochemical. The conditions noted are these: compound concentration 0.01 μM; read-out: EXP_VALUE(% Inhibition) DNA-PK(h) 0.01 μM. In a few lines: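 p53 Ser15 phosphorylation by human DNA-PK was measured by time-resolved FRET ratio (665/620 nm ×10000) using Eu-labelled anti-phospho-Ser15 and d2 anti-GST antibodies. Substrate GST-cMyc-p53 at 50 μM; Mg/ATP-initiated, 30 min at room temperature, EDTA stop.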

Regarding `C[C@H](Nc1ncnc2[nH]ccc(=O)c12)c1c(Cl)c2cccc(-c3ccc(N4CCCCC4)nc3)c2c(=O)n1-c1ccccc1` [Example 194, (S)-4-((1-(4-chloro-1-oxo-2-phenyl-8-(6-(piperidin-1-yl)pyridin-3-yl)-1,2-dihydroisoquinolin-3-yl)ethyl)amino)pyrido[2,3-d]pyrimidin-5(8H)-one], the inhibition at 0.01 µM in experiment [1] stood at 59%; on DNA-PK(h), 31%.

`C[C@H](Nc1ncnc2[nH]ccc(=O)c12)c1c(Cl)c2cccc(-c3ccnc(F)c3)c2c(=O)n1-c1ccccc1` [Example 195, (S)-4-((1-(4-chloro-8-(2-fluoropyridin-4-yl)-1-oxo-2-phenyl-1,2-dihydroisoquinolin-3-yl)ethyl)amino)pyrido[2,3-d]pyrimidin-5(8H)-one]: the inhibition at 0.01 µM in experiment [1] was 118%; at DNA-PK(h) it was 101%.

In the case of `CNC(=O)c1ccc(-c2cccc3c(Cl)c([C@H](C)Nc4ncnc5[nH]ccc(=O)c45)n(-c4ccccc4)c(=O)c23)cn1` [Example 196, (S)-5-(4-chloro-1-oxo-3-(1-((5-oxo-5,8-dihydropyrido[2,3-d]pyrimidin-4-yl)amino)ethyl)-2-phenyl-1,2-dihydroisoquinolin-8-yl)-N-methylpicolinamide], the inhibition at 0.01 µM in experiment [1] was determined as 127%; on DNA-PK(h), 101%.

For `COc1ncc(-c2cccc3c(Cl)c([C@H](C)Nc4ncnc5[nH]ccc(=O)c45)n(-c4ccccc4)c(=O)c23)cc1C` [Example 197, (S)-4-((1-(4-chloro-8-(6-methoxy-5-methylpyridin-3-yl)-1-oxo-2-phenyl-1,2-dihydroisoquinolin-3-yl)ethyl)amino)pyrido[2,3-d]pyrimidin-5(8H)-one], the inhibition at 0.01 µM was 91% in experiment [1] and 61% on DNA-PK(h).

As for `C[C@H](Nc1ncnc2[nH]ccc(=O)c12)c1c(Cl)c2cccc(-c3cnccn3)c2c(=O)n1-c1ccccc1` [Example 198, (S)-4-((1-(4-chloro-1-oxo-2-phenyl-8-(pyrazin-2-yl)-1,2-dihydroisoquinolin-3-yl)ethyl)amino)pyrido[2,3-d]pyrimidin-5(8H)-one], the inhibition at 0.01 µM in experiment [1] is 90%; on DNA-PK(h), 63%.

On to `CCOc1c(OC)ccc(-c2cccc3c(Cl)c([C@H](C)Nc4ncnc5[nH]ccc(=O)c45)n(-c4ccccc4)c(=O)c23)c1F` [Example 199, (S)-4-((1-(4-chloro-8-(3-ethoxy-2-fluoro-4-methoxyphenyl)-1-oxo-2-phenyl-1,2-dihydroisoquinolin-3-yl)ethyl)amino)pyrido[2,3-d]pyrimidin-5(8H)-one], for which the inhibition at 0.01 µM in experiment [1] amounted to 35%; on DNA-PK(h) it was 60%.

Turning to `C[C@H](Nc1ncnc2[nH]ccc(=O)c12)c1c(Cl)c2cccc(-c3cnc(N4CCC4)nc3)c2c(=O)n1-c1ccccc1` [Example 200, (S)-4-((1-(8-(2-(azetidin-1-yl)pyrimidin-5-yl)-4-chloro-1-oxo-2-phenyl-1,2-dihydroisoquinolin-3-yl)ethyl)amino)pyrido[2,3-d]pyrimidin-5(8H)-one], the inhibition at 0.01 µM in experiment [1] was found to be 77%; on DNA-PK(h) it was 72%.

Consider `C[C@H](Nc1ncnc2[nH]ccc(=O)c12)c1c(Cl)c2cccc(-c3ccc(C(N)=O)nc3)c2c(=O)n1-c1ccccc1` [Example 201, (S)-5-(4-chloro-1-oxo-3-(1-((5-oxo-5,8-dihydropyrido[2,3-d]pyrimidin-4-yl)amino)ethyl)-2-phenyl-1,2-dihydroisoquinolin-8-yl) picolinamide], for which the inhibition at 0.01 µM came out at 80% in experiment [1] and 73% at DNA-PK(h).

As for `CC(=O)Nc1ccc(-c2cccc3c(Cl)c([C@H](C)Nc4ncnc5[nH]ccc(=O)c45)n(-c4ccccc4)c(=O)c23)cn1` [Example 202, (S)—N-(5-(4-chloro-1-oxo-3-(1-((5-oxo-5,8-dihydropyrido[2,3-d]pyrimidin-4-yl)amino)ethyl)-2-phenyl-1,2-dihydroisoquinolin-8-yl)pyridin-2-yl) acetamide], the values for the inhibition at 0.01 µM (in experiment [1]; at DNA-PK(h)) were 78% and 70%, respectively.

Consider `C[C@H](Nc1ncnc2[nH]ccc(=O)c12)c1c(Cl)c2cccc(-c3cnc(NC4CC4)nc3)c2c(=O)n1-c1ccccc1` [Example 203, (S)-4-((1-(4-chloro-8-(2-(cyclopropylamino)pyrimidin-5-yl)-1-oxo-2-phenyl-1,2-dihydroisoquinolin-3-yl)ethyl)amino)pyrido[2,3-d]pyrimidin-5(8H)-one], for which the inhibition at 0.01 µM in experiment [1] turned out to be 106%; on DNA-PK(h) it was 79%.

`COc1cncc(-c2cccc3c(Cl)c([C@H](C)Nc4ncnc5[nH]ccc(=O)c45)n(-c4ccccc4)c(=O)c23)n1` [Example 204, (S)-4-((1-(4-chloro-8-(6-methoxypyrazin-2-yl)-1-oxo-2-phenyl-1,2-dihydroisoquinolin-3-yl)ethyl)amino)pyrido[2,3-d]pyrimidin-5(8H)-one]: the inhibition at 0.01 µM is 73% in experiment [1] and 66% on DNA-PK(h).

`C[C@H](Nc1ncnc2[nH]ccc(=O)c12)c1c(Cl)c2cccc(-c3cnc(N(C)C)cn3)c2c(=O)n1-c1ccccc1` [Example 205, (S)-4-((1-(4-chloro-8-(5-(dimethylamino)pyrazin-2-yl)-1-oxo-2-phenyl-1,2-dihydroisoquinolin-3-yl)ethyl)amino)pyrido[2,3-d]pyrimidin-5(8H)-one]: the inhibition at 0.01 µM is 49% in experiment [1] and 47% at DNA-PK(h).

On to `C[C@H](Nc1ncnc2[nH]ccc(=O)c12)c1c(Cl)c2cccc(-c3cnc(OC(C)(C)C)cn3)c2c(=O)n1-c1ccccc1` [Example 206, (S)-4-((1-(8-(5-(tert-butoxy)pyrazin-2-yl)-4-chloro-1-oxo-2-phenyl-1,2-dihydroisoquinolin-3-yl)ethyl)amino)pyrido[2,3-d]pyrimidin-5(8H)-one], for which the inhibition at 0.01 µM in experiment [1] turned out to be 45%; on DNA-PK(h), 29%.

Take `C[C@H](Nc1ncnc2[nH]ccc(=O)c12)c1c(Cl)c2cccc(-c3cnc(N4CCOCC4)cn3)c2c(=O)n1-c1ccccc1` [Example 207, (S)-4-((1-(4-chloro-8-(5-morpholinopyrazin-2-yl)-1-oxo-2-phenyl-1,2-dihydroisoquinolin-3-yl)ethyl)amino)pyrido[2,3-d]pyrimidin-5(8H)-one]: the inhibition at 0.01 µM in experiment [1] came out at 57%; at DNA-PK(h), 52%.

Regarding `C[C@H](Nc1ncnc2[nH]ccc(=O)c12)c1c(Cl)c2cccc(-c3cnc(C(C)(C)C)nc3)c2c(=O)n1-c1ccccc1` [Example 208, (S)-4-((1-(8-(2-(tert-butyl)pyrimidin-5-yl)-4-chloro-1-oxo-2-phenyl-1,2-dihydroisoquinolin-3-yl)ethyl)amino)pyrido[2,3-d]pyrimidin-5(8H)-one], the inhibition at 0.01 µM in experiment [1] worked out at 68%; on DNA-PK(h), 58%.

For the compound `CC(C)S(=O)(=O)c1ccc(-c2cccc3c(Cl)c([C@H](C)Nc4ncnc5[nH]ccc(=O)c45)n(-c4ccccc4)c(=O)c23)cc1` [Example 209, (S)-4-((1-(4-chloro-8-(4-(isopropylsulfonyl)phenyl)-1-oxo-2-phenyl-1,2-dihydroisoquinolin-3-yl)ethyl)amino)pyrido[2,3-d]pyrimidin-5(8H)-one], the inhibition at 0.01 µM was found to be 67% in experiment [1] and 77% at DNA-PK(h).
